Assay results: the supplement of paper PMC10307832

Compound: CC1=CN=C(N=C1C2=CNC(=C2)C(=O)N[C@H](CO)C3=CC(=CC=C3)Cl)NC4=C(C=C(C=C4)F)Cl [VX-11e]
Test: relative viability (nuclei count vs DMSO), 5 days (fraction); higher = more cells survive
In short: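 Five library-drug doses spaced by √10 were pinned onto vehicle-anchored 1536-well plates of lung cancer cell lines that had been kept overnight at 37 °C. Cells went 5 days without medium change, then were fixed, permeabilised and Hoechst-stained together, imaged at 4× and counted by MetaXpress. Viability is the ratio of treated-well to vehicle-well nuclei, taken as a median over plates. Plates required control CV below 25% and at least one doubling.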

Cell Line	relative viability (0.04 µM)	relative viability (0.1265 µM)	relative viability (0.4 µM)	relative viability (1.265 µM)	relative viability (4 µM)
NCI-H596	0.916	0.901	0.943	0.525	0.578
NCI-H2170	0.862	0.938	0.871	0.913	0.949
NCI-H3122	1.02	0.959	0.696	0.888	0.564
HCC-15	1.05	1.01		0.669	0.285
NCI-H1915	0.992	0.784	0.784	0.734	0.489
NCI-H1734	0.835	0.858	0.635	0.632	0.411
NCI-H2342	0.666	1.03	0.923	0.992	0.9
COR-L 105	0.845	0.894	0.845	0.516	0.383
RERF-LC-KJ	1.05	0.895	0.99	0.989	0.789
NCI-H2228	1.13	0.954	0.407	0.776	0.428
NCI-H1944	0.874	0.869	0.525	0.78	0.558
NCI-H1648	0.978	0.958	1.54	0.694	0.624
NCI-H647	0.814	0.884	0.494	0.652	0.426
A549	0.98	0.868	0.806	0.671	0.122
LC-2-ad	1.01	0.823	0.662	0.603	0.66
EMC-BAC-2	0.903	0.875	1.43	0.998	0.663
EBC-1	1.06	1.01	0.765	0.77	0.221
SW 900	0.722	0.768	0.182	0.473	0.541
NCI-H1792	0.604	0.852	0.236	0.534	0.174
NCI-H2405	1.01	0.934	0.901	0.943	0.462
NCI-H23	0.82	0.854	0.198	0.411	0.271
LXF-289	1.06	0.977	0.773	0.93	0.672
NCI-H1437	0.98	0.906	0.924	0.746	0.621
NCI-H661	1.01	1.02	0.947	1.04	0.724
PC-3 [JPC-3]	0.997	1.02	0.998	0.981	0.832
PC-14	1.05	0.954	0.659	0.799	0.491

Cell Line	relative viability (0.04 µM)	relative viability (0.1265 µM)	relative viability (0.4 µM)	relative viability (1.265 µM)	relative viability (4 µM)
NCI-H838	0.965	0.913	0.842	0.852	0.736
201T	0.971	0.985	0.883	0.691	0.951
SK-LU-1	1.09	0.928	0.831	0.911	0.346
NCI-H650	0.781	0.925	1.04	0.872	0.974
NCI-H1355	0.766	0.842	0.771	0.756	0.437
SW 1573	0.989	0.993	0.704	0.778	0.487
NCI-H1395	0.781	0.846	0.586	0.717	0.611
Calu-6	1.08	0.978	0.975	0.513	0.163
NCI-H358	1.01	0.835	0.595	0.805	0.266
HCC-827	1.09	0.988	1.07	1.14	0.958
NCI-H441	1.19	1.01		1.04	0.676
NCI-H2126	0.682	0.935	0.701	0.894	0.808
EPLC-272H	0.787	0.759	0.556	0.706	0.419
NCI-H1651	0.934	0.921	0.959	0.861	0.939
NCI-H727	0.784	0.933	0.687	0.551	0.347
LOU-NH91	0.855	0.924		0.733	0.797
HARA	0.969	0.939	0.832	0.427	0.326
NCI-H1299	1.01	0.981	1.03	1.03	0.49
CAL-12T	0.955	0.942	0.964	0.715	0.376
LCLC-103H	0.939	0.924	0.981	0.783	0.805
NCI-H1793		0.8		0.752	0.301
A-427	0.862	0.854	0.927	0.933	0.419
NCI-H520	0.872	1.06	0.874	1.25	0.898
HCC-44	1	0.941	0.907	0.915	0.733
NCI-H2009	1.12	0.962	0.932	0.481	0.269
NCI-H2085	1.04	0.949	0.923	0.84	0.696

Cell Line	relative viability (0.04 µM)	relative viability (0.1265 µM)	relative viability (0.4 µM)	relative viability (1.265 µM)	relative viability (4 µM)
NCI-H1666	1.02	0.978	0.764	0.805	0.679
LCLC-97TM1	0.911	0.889	0.797	0.499	0.541
NCI-H1703	0.828	1.11	0.632	0.961	0.74
NCI-H1755	1.03	0.978	0.978	0.992	0.817
H3255	1.03	0.925	0.896	0.911	0.875
NCI-H2087	1.05	0.989		0.566	0.293
BEN		0.903	1.03	0.662	0.782
COR-L23	1.17	0.92	0.975	0.778	0.358
ABC-1	0.83	0.888	0.938	0.83	0.723
HCC-366	0.997	0.936		1.03	0.676
SK-MES-1	1.06	0.921	0.886	0.748	0.35
UMC-11	0.757	0.909	0.962	0.791	0.889
NCI-H2023	0.941	0.957	0.557	0.569	0.445
LK-2	0.908	0.983	0.821	0.588	0.705
NCI-H1650	0.866	0.886	0.521	0.668	0.652
EKVX	0.906	1.03	0.953	0.898	0.489
NCI-H1975	0.95	0.885	0.774	0.816	0.598
NCI-H1993		0.968	0.673	0.809	0.662
LU99A	1.03	0.933	0.802	0.77	0.394
NCI-H322M	0.814	0.517	0.728	0.727	0.605
NCI-H2347	1.01	1.05	0.853	0.752	0.469
HOP-62	1.04	0.986	0.921	0.595	0.567
ChaGo-K-1	0.926	0.903	0.925	1.03	0.905
NCI-H460	1.03	0.972	0.858	0.886	0.342
IA-LM	0.767	0.916	0.913	0.468	0.129
HCC-78	0.934	1.02	1.01	0.68	0.667
